From patent US5846723A, “Methods for detecting the RNA component of telomerase” (Geron Corporation, priority 1996, dated 1998)

Columns and labels:
[1] = system: hTR in the context of the native telomerase enzyme; experiment: RNase H cleavage of hTR directed by antisense DNA oligonucleotides in native telomerase; format: biochemical, human; conditions: for RNaseH Digestion?: antisense DNA oligo, cleavage of hTR in native RNP, Table II; for ability to direct RNase H cleavage of hTR: native telomerase enzyme
Description: The regions were identified in two ways. The first way involved contacting samples containing human telomerase with a variety of DNA polynucleotides having sequences complementary to the sequence of hTR under hybridization conditions, contacting the telomerase with RNase H, which cleaves the RNA strand of an RNA-DNA duplex, and determining whether hTR had been cleaved. […] The second way involved oligo-decoration. […] Other accessible areas of hTR can be identified by similar assays using antisense polynucleotides whose sequences are substantially complementary to a nucleotide sequence selected from hTR.
A set of 17 contiguous antisense DNA oligonucleotides (30 mers) were tested for their ability to direct RNase H cleavage of hTR in the context of the native telomerase enzyme. […] Antisense oligonucleotides "14", "16", and "21" (see Table II) were tested as potential inhibitors of human telomerase ("hTase").
The accessible regions were "fine mapped" by using shorter antisense oligonucleotides to direct RNase H cleavage of hTR.

telomerase [2] = experiment: Capture of active telomerase on streptavidin beads by biotinylated 2'OMe antisense analogs; format: binding, human; conditions: for Capture? (2'OMe): biotinylated 2'OMe antisense RNA analog of the oligo, streptavidin beads; for Capture? (2'OMe) / Activity on beads: Table II; for capture of active telomerase on streptavidin beads: biotinylated 2'OMe analogs; for Activity on beads: telomerase activity on beads after capture by 2'OMe analog
Description: On the bases of the antisense data, biotinylated 2'OMe antisense RNA analogs were designed for affinity purification of telomerase. The goal of the antisense affinity approach was to design ligands that afforded good purification and yield, while keeping the enzyme intact (i.e., active). Several 2'OMe ligands met our criteria (Table II, FIG. 1). […] These analogs were further refined via the synthesis of second generation antisense affinity ligands, which were designed to allow release of active telomerase (reversible ligands). Currently, our affinity scheme consists of two reversible antisense ligands, which are employed in series, and target two different regions of hTR. The first ligand is a disulfide version of 14ab which allows release of telomerase via dithiothreitol treatment. The second ligand contains the 21ab1 antisense sequence and plus a tail of "nonsense" sequence. hTR is released from the antisense ligand by a displacement DNA oligonucleotide, which is complementary to the entire length of the 21ab1 antisense affinity ligand.

[3] = system: human telomerase ("hTase"); experiment: Inhibition of human telomerase, standard primer elongation assay; format: biochemical; conditions: preincubation of partially purified nuclear or cytoplasmic extract with oligonucleotide
[4] = system: telomerase ribonucleoprotein; experiment: Oligodecoration: native gel mobility shift with labeled 2'-O-methyl antisense polynucleotides; format: binding, human; conditions: radioactively labeled 2'-O-methyl antisense polynucleotide; altered mobility on native gel
Protocol: Oligodecoration was used to further identify accessible regions of the telomerase ribonucleoprotein. Radioactively labeled 2 0-methyl antisense polynucleotides were prepared and exposed to the telomerase ribonucleoprotein. The sample was incubated to allow the polynucleotide to bind to telomerase. Then the sample was run on a native gel. […] RP2 has the sequence CGG GCC AGC AGC TGA CA (SEQ ID NO:14).

telomerase [5] = experiment: Capture of telomerase on an affinity matrix; format: binding, human

## 5' CATTTTTTGTTTGCTCTAGA 3' (antisense CATTTTTTGTTTGCTCTAGA; chemistry not given here) [20/21, antisense 20 mer]
[1]
  RNaseH Digestion?: yes

## 5' CCAACTCTTCGCGGTGGCAG 3' (antisense CCAACTCTTCGCGGTGGCAG; chemistry not given here) [Oligo 16bc, antisense 20 mer of the "16" region]
[1]
  RNaseH Digestion?: yes
  ability to direct RNase H cleavage of hTR: directed RNase H cleavage
Telomerase [2]
  Capture? (2'OMe): yes

## 5' CCTGCGGCCTGAAACGGTGA 3' (antisense CCTGCGGCCTGAAACGGTGA; chemistry not given here) [Oligo 14bc, antisense 20 mer of the "14" region]
[1]
  RNaseH Digestion?: no

## 5' CGT TCC TCT TCC 3' (antisense CGTTCCTCTTCC; biotinylated 2'OMe, further chemistry not given here) [Oligo 14d, antisense 12 mer of the "14" region; biotinylated 2'OMe analog used for capture]
[1]
  RNaseH Digestion?: yes
  ability to direct RNase H cleavage of hTR: directed RNase H cleavage
Telomerase [2]
  capture of active telomerase on streptavidin beads: "captured" active telomerase
  Capture? (2'OMe): yes
  Activity on beads: yes

## 5' CGT TCC TCT TCC TGC G9C CT 3' [Oligo 14ab]
[1]
  RNaseH Digestion?: yes
  ability to direct RNase H cleavage of hTR: directed RNase H cleavage
Telomerase [2]
  capture of active telomerase on streptavidin beads: "captured" active telomerase
  Capture? (2'OMe): yes
  Activity on beads: yes

## 5' CGTTCCTCTTCCTGCGGCCTGAAACGGTGA 3' (antisense CGTTCCTCTTCCTGCGGCCTGAAACGGTGA; chemistry not given here) [Oligo 14, antisense DNA 30 mer against hTR nucleotides 350-380]
[1]
  RNaseH Digestion?: yes
  ability to direct RNase H cleavage of hTR: directed efficient cleavage of hTR
[3]
  inhibition of hTase activity: did not significantly affect hTase activity

## 5' CTGACAGAGCCCAACTCTTC 3' (antisense CTGACAGAGCCCAACTCTTC; chemistry not given here) [Oligo 16ab, antisense 20 mer of the "16" region]
[1]
  RNaseH Digestion?: yes
  ability to direct RNase H cleavage of hTR: directed RNase H cleavage
Telomerase [2]
  Capture? (2'OMe): yes
  Activity on beads: no

## 5' CTGACAGAGCCCAACTCTTCGCGGTGGCAG 3' (antisense CTGACAGAGCCCAACTCTTCGCGGTGGCAG; chemistry not given here) [Oligo 16, antisense DNA 30 mer against hTR nucleotides 290-319]
[1]
  RNaseH Digestion?: yes
  ability to direct RNase H cleavage of hTR: directed efficient cleavage of hTR
[3]
  inhibition of hTase activity: did not significantly affect hTase activity

## 5' GCT CTA G 3' [Oligo 21ab1]
[1]
  RNaseH Digestion?: yes
Telomerase [2]
  capture of active telomerase on streptavidin beads: "captured" active telomerase
  Capture? (2'OMe): yes
  Activity on beads: yes

## 5' GCT CTA GAA TG 3' (antisense GCTCTAGAATG; chemistry not given here) [Oligo 21ab2, shorter antisense oligo of the "21" region]
[1]
  RNaseH Digestion?: yes
Telomerase [2]
  Capture? (2'OMe): yes

## 5' GCT CTA GAA TGA ACG 3' (antisense GCTCTAGAATGAACG; chemistry not given here) [Oligo 21ab3, shorter antisense oligo of the "21" region]
[1]
  RNaseH Digestion?: yes

## 5' GCT CTA GAA TGA ACG GTG G 3' (antisense GCTCTAGAATGAACGGTGG; chemistry not given here) [Oligo 21ab, shorter antisense oligo of the "21" region]
[1]
  RNaseH Digestion?: yes
Telomerase [2]
  Capture? (2'OMe): yes

## 5' GCTCTAGAATGAACGGTGGAAGGCGGCAGG 3' (antisense GCTCTAGAATGAACGGTGGAAGGCGGCAGG; chemistry not given here) [Oligo 21, antisense DNA 30 mer directed against nucleotides 137 to 166 of hTR]
[1]
  RNaseH Digestion?: yes
  ability to direct RNase H cleavage of hTR: directed efficient cleavage of hTR
[3]
  inhibition of hTase activity: potent inhibition of hTase

## CGG GCC AGC AGC TGA CA (antisense CGGGCCAGCAGCTGACA; 2'-O-methyl, further chemistry not given here) [RP2]
[4]
  binding to the telomerase ribonucleoprotein: found to bind
Telomerase [5]
  ability to capture telomerase on an affinity matrix: demonstrated an ability to capture telomerase
